The values that follow come from paper PMC6017286, “VSP-17, a New PPARγ Agonist, Suppresses the Metastasis of Triple-Negative Breast Cancer via Upregulating the Expression of E-Cadherin” (Molecules : A Journal of Synthetic Chemistry and Natural …, 2018).

The target in the assay is T1, PPARγ (Homo sapiens, UniProt P37231).
T1 construct: gene PPARG; GST-fused human PPARγ-LBD
T1 sequence (P37231 231-505 limits assumed): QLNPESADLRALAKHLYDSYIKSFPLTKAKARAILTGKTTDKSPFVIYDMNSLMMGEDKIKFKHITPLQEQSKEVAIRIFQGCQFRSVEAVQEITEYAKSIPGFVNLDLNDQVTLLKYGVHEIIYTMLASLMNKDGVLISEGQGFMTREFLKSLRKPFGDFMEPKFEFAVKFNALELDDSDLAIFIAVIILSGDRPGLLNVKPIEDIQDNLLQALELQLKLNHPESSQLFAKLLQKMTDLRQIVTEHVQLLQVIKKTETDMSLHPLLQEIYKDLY
The assay is described as follows: LanthaScreen TR-FRET competitive binding assay (displacement of fluorescent PPAR ligand). (In TR-FRET formats the signal depends on donor and acceptor labels being close together.)

The term Ki denotes a measure of affinity in units of concentration, obtained from inhibition or displacement. Low values mean higher affinity, high ones lower affinity.

For `O=C(NCc1ccncc1)c1ccc2c(ccn2Cc2ccc(C(F)(F)F)cc2)c1` [VSP-17], the affinity corresponds to a Ki of 270 nM.
